Measured values taken from PubChem BioAssay (NCI).
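Dose response: 5 concentrations. Exposure: 48 h. Format: 96-well plates. Endpoint: linear interpolation; highest concentration if not reached. TGI: total growth inhibition.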

Key:
Assay in all cases: DTP human tumour cell line panel, 48 h
HCT-15 colon = test system: HCT-15 colon
HCT-116 colon = test system: HCT-116 colon
SN12C renal = test system: SN12C renal
OVCAR-5 ovarian = test system: OVCAR-5 ovarian
UO-31 renal = test system: UO-31 renal
SNB-75 CNS = test system: SNB-75 CNS
DU-145 prostate = test system: DU-145 prostate
MALME-3M melanoma = test system: MALME-3M melanoma
COLO 205 colon = test system: COLO 205 colon
OVCAR-3 ovarian = test system: OVCAR-3 ovarian
MDA-N = test system: MDA-N
BT-549 breast = test system: BT-549 breast
LOX IMVI melanoma = test system: LOX IMVI melanoma
HS 578T breast = test system: HS 578T breast
SK-MEL-2 melanoma = test system: SK-MEL-2 melanoma
SW-620 colon = test system: SW-620 colon
SK-MEL-5 melanoma = test system: SK-MEL-5 melanoma
MDA-MB-231 breast = test system: MDA-MB-231 breast
OVCAR-4 ovarian = test system: OVCAR-4 ovarian
NCI-H522 lung = test system: NCI-H522 lung
MCF7 breast = test system: MCF7 breast
SK-OV-3 ovarian = test system: SK-OV-3 ovarian
IGROV1 ovarian = test system: IGROV1 ovarian
A549 NSCLC = test system: A549 NSCLC
SF-268 CNS = test system: SF-268 CNS
PC-3 prostate = test system: PC-3 prostate
U251 CNS = test system: U251 CNS
UACC-257 melanoma = test system: UACC-257 melanoma
NCI/ADR-RES ovarian = test system: NCI/ADR-RES ovarian
ACHN renal = test system: ACHN renal
NCI-H23 lung = test system: NCI-H23 lung
TK-10 renal = test system: TK-10 renal
MDA-MB-435 = test system: MDA-MB-435
CCRF-CEM leukemia = test system: CCRF-CEM leukemia
SNB-19 CNS = test system: SNB-19 CNS
CAKI-1 renal = test system: CAKI-1 renal
SF-539 CNS = test system: SF-539 CNS
NCI-H460 lung = test system: NCI-H460 lung
NCI-H226 lung = test system: NCI-H226 lung
HCC-2998 colon = test system: HCC-2998 colon
RPMI-8226 leukemia = test system: RPMI-8226 leukemia
HL-60(TB) leukemia = test system: HL-60(TB) leukemia
786-0 renal = test system: 786-0 renal
SR leukemia = test system: SR leukemia
HOP-62 NSCLC = test system: HOP-62 NSCLC
EKVX NSCLC = test system: EKVX NSCLC
M14 melanoma = test system: M14 melanoma
KM12 colon = test system: KM12 colon
RXF 393 renal = test system: RXF 393 renal
T-47D breast = test system: T-47D breast
SF-295 CNS = test system: SF-295 CNS
OVCAR-8 ovarian = test system: OVCAR-8 ovarian
HOP-92 NSCLC = test system: HOP-92 NSCLC
SK-MEL-28 melanoma = test system: SK-MEL-28 melanoma
A498 renal = test system: A498 renal
UACC-62 melanoma = test system: UACC-62 melanoma
M19-MEL melanoma = test system: M19-MEL melanoma
KM20L2 colon = test system: KM20L2 colon
HT29 colon = test system: HT29 colon
DLD-1 colon = test system: DLD-1 colon
HOP-18 NSCLC = test system: HOP-18 NSCLC
SNB-78 CNS = test system: SNB-78 CNS
K-562 leukemia = test system: K-562 leukemia
DMS 114 small cell lung = test system: DMS 114 small cell lung
DMS 273 small cell lung = test system: DMS 273 small cell lung
LXFL 529 NSCLC = test system: LXFL 529 NSCLC
MOLT-4 leukemia = test system: MOLT-4 leukemia

## C[As](C)SCC(NC(=O)CCC(N)C(=O)O)C(=O)NCC(=O)O.Cl.c1ccncc1 (centres undefined)
HCT-15 colon
  TGI: 0.977 µM
HCT-116 colon
  TGI: 1.53 µM
SN12C renal
  TGI: 2.14 µM
OVCAR-5 ovarian
  TGI: 6.89 µM
UO-31 renal
  TGI: 1.31 µM
SNB-75 CNS
  TGI: 14.8 µM
DU-145 prostate
  TGI: 0.556 µM
MALME-3M melanoma
  TGI: 0.119 µM
COLO 205 colon
  TGI: > 100 µM
OVCAR-3 ovarian
  TGI: 0.412 µM
MDA-N
  TGI: 1.51 µM
BT-549 breast
  TGI: 1.57 µM
LOX IMVI melanoma
  TGI: 1.02 µM
HS 578T breast
  TGI: 4.6 µM
SK-MEL-2 melanoma
  TGI: 1.67 µM
SW-620 colon
  TGI: 6.59 µM
SK-MEL-5 melanoma
  TGI: 0.878 µM
MDA-MB-231 breast
  TGI: 0.912 µM
OVCAR-4 ovarian
  TGI: 2.64 µM
NCI-H522 lung
  TGI: 0.267 µM
MCF7 breast
  TGI: 1.14 µM
SK-OV-3 ovarian
  TGI: > 47.8 µM
IGROV1 ovarian
  TGI: 6.18 µM
A549 NSCLC
  TGI: 5.64 µM
SF-268 CNS
  TGI: 3.59 µM
PC-3 prostate
  TGI: 4 µM
U251 CNS
  TGI: 5.58 µM
UACC-257 melanoma
  TGI: 2.46 µM
NCI/ADR-RES ovarian
  TGI: 9.71 µM
ACHN renal
  TGI: 1.1 µM
NCI-H23 lung
  TGI: 2.7 µM
TK-10 renal
  TGI: 0.595 µM
MDA-MB-435
  TGI: 1.07 µM
CCRF-CEM leukemia
  TGI: 6.31 µM
SNB-19 CNS
  TGI: 25.5 µM
CAKI-1 renal
  TGI: 0.652 µM
SF-539 CNS
  TGI: 2.09 µM
NCI-H460 lung
  TGI: 8.9 µM
NCI-H226 lung
  TGI: 1.19 µM
HCC-2998 colon
  TGI: 0.813 µM
RPMI-8226 leukemia
  TGI: 1.56 µM
HL-60(TB) leukemia
  TGI: 0.878 µM
786-0 renal
  TGI: 1.3 µM
SR leukemia
  TGI: 0.076 µM
HOP-62 NSCLC
  TGI: 5.64 µM
EKVX NSCLC
  TGI: 3.08 µM
M14 melanoma
  TGI: 1.12 µM
KM12 colon
  TGI: 3.81 µM
RXF 393 renal
  TGI: 0.398 µM
T-47D breast
  TGI: 1.19 µM
SF-295 CNS
  TGI: 12.7 µM
OVCAR-8 ovarian
  TGI: 0.679 µM
HOP-92 NSCLC
  TGI: 0.763 µM
SK-MEL-28 melanoma
  TGI: 2.01 µM
A498 renal
  TGI: 3.44 µM
UACC-62 melanoma
  TGI: 1.13 µM

## O=S(=O)(c1ccccc1)n1cnc(CCc2ccccc2)n1
HCT-15 colon
  TGI: > 100 µM
HCT-116 colon
  TGI: > 100 µM
M19-MEL melanoma
  TGI: > 100 µM
SN12C renal
  TGI: > 100 µM
KM20L2 colon
  TGI: > 100 µM
OVCAR-5 ovarian
  TGI: > 100 µM
HT29 colon
  TGI: > 100 µM
UO-31 renal
  TGI: > 100 µM
SNB-75 CNS
  TGI: > 100 µM
MALME-3M melanoma
  TGI: > 100 µM
COLO 205 colon
  TGI: > 100 µM
OVCAR-3 ovarian
  TGI: > 100 µM
LOX IMVI melanoma
  TGI: > 100 µM
DLD-1 colon
  TGI: > 100 µM
HOP-18 NSCLC
  TGI: > 100 µM
SK-MEL-2 melanoma
  TGI: > 100 µM
SNB-78 CNS
  TGI: > 100 µM
SW-620 colon
  TGI: > 100 µM
K-562 leukemia
  TGI: > 100 µM
SK-MEL-5 melanoma
  TGI: > 100 µM
OVCAR-4 ovarian
  TGI: > 100 µM
DMS 114 small cell lung
  TGI: > 100 µM
NCI-H522 lung
  TGI: > 100 µM
SK-OV-3 ovarian
  TGI: > 100 µM
IGROV1 ovarian
  TGI: > 100 µM
DMS 273 small cell lung
  TGI: > 100 µM
A549 NSCLC
  TGI: > 100 µM
SF-268 CNS
  TGI: > 100 µM
U251 CNS
  TGI: > 100 µM
UACC-257 melanoma
  TGI: > 100 µM
ACHN renal
  TGI: > 100 µM
NCI-H23 lung
  TGI: > 100 µM
TK-10 renal
  TGI: > 100 µM
CCRF-CEM leukemia
  TGI: > 100 µM
CAKI-1 renal
  TGI: > 100 µM
SF-539 CNS
  TGI: > 100 µM
NCI-H460 lung
  TGI: > 100 µM
NCI-H226 lung
  TGI: > 100 µM
LXFL 529 NSCLC
  TGI: > 100 µM
RPMI-8226 leukemia
  TGI: > 100 µM
HL-60(TB) leukemia
  TGI: > 100 µM
786-0 renal
  TGI: > 100 µM
SR leukemia
  TGI: > 100 µM
HOP-62 NSCLC
  TGI: > 100 µM
M14 melanoma
  TGI: > 100 µM
KM12 colon
  TGI: > 100 µM
RXF 393 renal
  TGI: > 100 µM
SF-295 CNS
  TGI: > 100 µM
OVCAR-8 ovarian
  TGI: > 100 µM
HOP-92 NSCLC
  TGI: > 100 µM
SK-MEL-28 melanoma
  TGI: > 100 µM
A498 renal
  TGI: > 100 µM
MOLT-4 leukemia
  TGI: > 100 µM
UACC-62 melanoma
  TGI: > 100 µM

## CC(C)CNC(=O)c1c(NC(=O)c2ccccc2)sc2[nH]c(=O)n(-c3ccccc3)c(=O)c12
HCT-15 colon
  TGI: > 100 µM
HCT-116 colon
  TGI: > 100 µM
SN12C renal
  TGI: > 100 µM
OVCAR-5 ovarian
  TGI: > 100 µM
HT29 colon
  TGI: > 100 µM
UO-31 renal
  TGI: > 100 µM
SNB-75 CNS
  TGI: 48.3 µM
DU-145 prostate
  TGI: > 100 µM
MALME-3M melanoma
  TGI: > 100 µM
COLO 205 colon
  TGI: > 100 µM
OVCAR-3 ovarian
  TGI: > 100 µM
MDA-N
  TGI: > 100 µM
BT-549 breast
  TGI: 77.4 µM
LOX IMVI melanoma
  TGI: > 100 µM
HS 578T breast
  TGI: > 79.1 µM
SK-MEL-2 melanoma
  TGI: 68.6 µM
SW-620 colon
  TGI: > 100 µM
K-562 leukemia
  TGI: > 86.9 µM
SK-MEL-5 melanoma
  TGI: > 100 µM
MDA-MB-231 breast
  TGI: 52.6 µM
OVCAR-4 ovarian
  TGI: > 100 µM
NCI-H522 lung
  TGI: > 100 µM
MCF7 breast
  TGI: > 100 µM
SK-OV-3 ovarian
  TGI: > 81.2 µM
IGROV1 ovarian
  TGI: > 100 µM
A549 NSCLC
  TGI: > 100 µM
SF-268 CNS
  TGI: > 100 µM
PC-3 prostate
  TGI: > 100 µM
U251 CNS
  TGI: > 100 µM
UACC-257 melanoma
  TGI: > 100 µM
NCI/ADR-RES ovarian
  TGI: > 100 µM
ACHN renal
  TGI: 61 µM
NCI-H23 lung
  TGI: > 100 µM
TK-10 renal
  TGI: 75 µM
MDA-MB-435
  TGI: > 100 µM
CCRF-CEM leukemia
  TGI: > 89.6 µM
SNB-19 CNS
  TGI: 75.8 µM
CAKI-1 renal
  TGI: > 80.9 µM
SF-539 CNS
  TGI: > 84 µM
NCI-H460 lung
  TGI: > 100 µM
NCI-H226 lung
  TGI: > 100 µM
HCC-2998 colon
  TGI: > 100 µM
RPMI-8226 leukemia
  TGI: > 100 µM
HL-60(TB) leukemia
  TGI: > 100 µM
786-0 renal
  TGI: 53.6 µM
SR leukemia
  TGI: > 90.7 µM
HOP-62 NSCLC
  TGI: 49.1 µM
EKVX NSCLC
  TGI: > 100 µM
M14 melanoma
  TGI: > 100 µM
KM12 colon
  TGI: > 100 µM
RXF 393 renal
  TGI: 40 µM
T-47D breast
  TGI: > 100 µM
SF-295 CNS
  TGI: 67.1 µM
OVCAR-8 ovarian
  TGI: > 100 µM
HOP-92 NSCLC
  TGI: 19.7 µM
SK-MEL-28 melanoma
  TGI: > 100 µM
A498 renal
  TGI: > 71.2 µM
MOLT-4 leukemia
  TGI: > 100 µM
UACC-62 melanoma
  TGI: > 100 µM
